Our source for the MIC99 and IC50 values is ChEMBL document CHEMBL5329193, “Targeting Mycobacterium tuberculosis iron-scavenging tools: a recent update on siderophores inhibitors” (RSC Med Chem, 2023).

Structures are written as SMILES. pIC50: −log10 of the molar value. Converted amounts (≈) assume the structure as drawn.

Test [1] has as its system Mycobacterium tuberculosis variant bovis. Kind of test: Antimycobacterial activity against Mycobacterium bovis BCG assessed as reduction in microbial growth incubated for 15 days by resazurin based reduction assay. Type of test: functional. Conditions: 360 h, time 15 day.
The test system is the same in test [2]. As to the kind of experiment: Antimycobacterial activity against Mycobacterium bovis BCG ATCC 35734 assessed as inhibition of bacterial growth incubated for 5 days by broth microdilution method. In kind it is functional, organism-based. Particulars: BCG ATCC 35734, 120 h.
The test system is the same in test [3]. Kind of test: Antitubercular activity against Mycobacterium bovis BCG assessed as bacterial growth inhibition incubated for 15 days by resazurin based reduction assay. In kind it is functional. Conditions: 360 h, time 15 day.

In the case of `N#Cc1cc(OCCOc2ccccc2)cc(-c2ccc(C(=O)O)o2)c1`, the MIC99 in test [1] came out at 63 µM. The pIC50 in test [2] is 4.92. Turning to `N#Cc1cc(-c2ccc(C(=O)O)o2)cc(C(F)(F)F)c1`, the MIC99 in test [3] worked out at 125 µM (≈ 35.1 µg/mL).
